Assay results reported in US20230023802A1, “STABILIZED DRUG FORMULATIONS AND METHODS OF LOADING DRUG DELIVERY IMPLANTS” (THE METHODIST HOSPITAL SYSTEM, priority 2019, published 2023).
Structures can show the parent of a compound that is named as a salt. Where two headings read alike, the source gives them in different places.

Tests used:
[1] = after 1 month, implant with 200 nm membrane in PBS sink, normalized to first time point
Description: Data are normalized to the values of day 1.
Urocanic acid was then tested. […] This formulation was loaded into an implant equipped with a 200 nm membrane. The implant was placed in 22 mL solution of PBS (the sink solution). The sink solution was replaced every 40 hours with fresh PBS. […] All results were normalized by the results of the first time point to compensate for the degradation that takes place in the sink solution.

[2] = pH=5.3
physchem = settings: pH 7.4

| Compound | percentage of tenofovir alafenamide in the released mixture of tenofovir derivatives [1] [%] | hydrolysis half-life (t1/2) [2] | percentage of tenofovir alafenamide in the released mixture of tenofovir derivatives ([1]; listed as free base tenofovir alafenamide) [%] | half-life (physchem) [h] |
| --- | --- | --- | --- | --- |
| CC(C)OC(=O)[C@H](C)N[P@](=O)(CO[C@H](C)Cn1cnc2c(N)ncnc21)Oc1ccccc1 [tenofovir alafenamide fumarate] | 45 | – | – | – |
| CC(C)OC(=O)[C@H](C)N[P@](=O)(CO[C@H](C)Cn1cnc2c(N)ncnc21)Oc1ccccc1 [tenofovir alafenamide] | – | over 4 months | 82 | < 48 |
